Data on 1 molecule can be found in patent US8039501B2, “Synephrine derivatives useful as anti-inflammatory agents” (Universiteit Gent, priority 2005, dated 2011).

SMILES strings stand for the structures. Values joined by “and” are separate entries in the source; they are usually repeats but may differ in a detail not shown here. Equal values may be shown once.

The subject of this experiment is B-CLL cells. Briefly: Annexin V/PI flow cytometric analysis of apoptosis in ex-vivo cultured B-CLL cells. Particulars: 24 hours. The class given is cell-based, human. On the procedure: Blood samples were obtained from B-CLL patients after informed consent according to institutional guidelines. CLL lymphocytes were isolated using Lymphoprep (Nycomed Pharma, Denmark) and re-suspended at a final concentration of 10−30×10^6 cells/ml in RPMI 1640 medium, supplemented with 10% heat-inactivated fetal bovine serum (FBS) (Greiner Bio-one, Wemmel, Belgium), 100 IU/ml penicillin, 100 μg/ml streptomycin, and 0.56 μg/mL fungizone (Gibco BRL, Merelbeke, Belgium). B-CLL cells were cultured in Dulbecco's Modified Eagle Medium (DMEM) (Gibco, Invitrogen Inc.) containing 10% FBS (Gibco, Invitrogen Inc.). For flow cytometric analysis of apoptosis, B-CLL cells were treated with the different compounds for 24 hours, 3×10^5 cells were removed from the culture medium, washed twice with cold PBS, and double stained with annexin V-fluorescein isothiocyanate (FITC) and propidium iodide (PI; Beckman Coulter, Miami, Fla.) in Annexin binding buffer, followed by analysis on a FC500PTM (Beckman Coulter, Nyon, Switzerland) flow cytometer. Flow cytometric data were analyzed using Cytomixs RXP software (Beckman Coulter, Nyon, Switzerland). To avoid non-specific fluorescence from dead cells, live cells were gated using forward and side scatter.
One of the early signs of apoptosis is the translocation of the membrane phospholipid phosphatidylserine from the cytoplasmic interface to the extracellular surface. Annexin V has a high affinity for the phospatidylserine-containing phospholipid bilayers. […] As the plasma membrane becomes increasingly permeable during the later stages of apoptosis, the DNA-binding dye PI can readily move across the cell membrane and bind to cellular DNA, providing a means to detect the loss of membrane integrity through mechanisms including necrosis. Three different cell populations can be observed in cells double-stained with AnnV-FITC and PI. […] Cells that stain with Ann V only are early apoptotic cells. And cells that stain with both AnnV and PI are late apoptotic/necrotic cells. The percentage of AnnV-positive B-CLL cells in the lymphocyte gate were measured by FACS and results were expressed as % apoptotic cells, i.e. sum of early apoptotic (AnnV+, PI−), and late apoptotic/dead cells (AnnV+, PI+). The percent of living cells was normalized to 100% living cells incubated in control medium with 0.1% EtOH. All measurements were made in duplicate and averaged.

Consider `CNCC(Cl)c1ccc(OC(C)=O)cc1.Cl` (stereo not drawn) [CpdA, 2-(4-acetoxyphenyl)-2-chloro-N-methyl-ethylammonium chloride], for which, under “10^−6M”, the “% apoptotic cells, CLL patient 1” value worked out at 43% and the “% apoptotic cells, CLL patient 2” value was determined as 54%. Moreover, the “Apoptosis in cells from 2 different CLL patients” value (10^−7M) was 40% and 55%.
